Reference: ChEMBL document CHEMBL1151429, “Novel drug resistance pattern associated with the mutations K70G and M184V in human immunodeficiency virus type 1 reverse transcriptase” (2007)

How the values were obtained:
Type in all cases: functional
[1] = system: Human immunodeficiency virus 1; assay: Antiviral activity against HIV1 LAI with reverse transcriptase K70E mutation relative to wild type HIV1 LAI
[2] = system: Human immunodeficiency virus 1; assay: Ratio of IC50 for HIV1 with reverse transcriptase K70E/M184V mutation to IC50 for wild type HIV1
[3] = system: Human immunodeficiency virus 1; assay: Ratio of IC50 for HIV1 with reverse transcriptase K70G/M184V mutation to IC50 for wild type HIV1
[4] = system: Human immunodeficiency virus 1; assay: Antiviral activity against HIV1 with reverse transcriptase K70E M184V and K70G M184V mutation by antivirogram biological cutoffs assay relative to wild type HIV1
[5] = system: Human immunodeficiency virus 1; assay: Ratio of IC50 for HIV1 with reverse transcriptase K70G mutation to IC50 for wild type HIV1

| SMILES | fold change (FC) [1] | Ratio IC50 [2] | Ratio IC50 [3] | fold change (FC) [4] | Ratio IC50 [5] |
| --- | --- | --- | --- | --- | --- |
| C[C@H](Cn1cnc2c(N)ncnc21)OCP(=O)(O)OP(=O)(O)OP(=O)(O)O | 2.1 |  |  |  |  |
| Cc1cn([C@H]2C[C@H](N=[N+]=[N-])[C@@H](CO)O2)c(=O)[nH]c1=O [ZIDOVUDINE] |  | <0.3 | <0.8 | 2.7 |  |
| Nc1nc(=O)n([C@@H]2CS[C@H](CO)O2)cc1F [EMTRICITABINE] |  | >40.8 | >63.4 | 3.5 |  |
| Cc1cn([C@H]2C=C[C@@H](CO)O2)c(=O)[nH]c1=O [STAVUDINE] |  | 0.4 | 0.9 | 2.3 | 1.3 |
| Nc1ccn([C@@H]2CS[C@H](CO)O2)c(=O)n1 [LAMIVUDINE] |  |  |  | 2.4 |  |
| Nc1nc(NC2CC2)c2ncn([C@H]3C=C[C@@H](CO)C3)c2n1 [ABACAVIR] |  | 1.3 | 3.2 | 2.2 | 2.1 |
| O=c1[nH]cnc2c1ncn2[C@H]1CC[C@@H](CO)O1 [DIDANOSINE] |  | 1.6 | 5.3 | 2.2 | 2.1 |
| Nc1ccn([C@@H]2CS[C@H](COP(=O)(O)OP(=O)(O)OP(=O)(O)O)O2)c(=O)n1 [LAMIVUDINE TRIPHOSPHATE] | 3.5 |  |  |  |  |
| C[C@H](Cn1cnc2c(N)ncnc21)OCP(=O)(O)O [TENOFOVIR ANHYDROUS] |  | 1.7 | 1.5 | 2.1 | 1.9 |
| Nc1nc(=O)c2ncn([C@H]3C=C[C@@H](COP(=O)(O)OP(=O)(O)OP(=O)(O)O)C3)c2[nH]1 [CARBOVIR 5'-TRIPHOSPHATE, (-)-] | 2.3 |  |  |  |  |
